The structures appear in SMILES notation.

Consider three molecules from BindingDB's records for patent US20230399314 (Wuhan Humanwell Innovative Drug Research and Development …, 2023).

5'-nucleotidase, sequence (P21589 whole entry): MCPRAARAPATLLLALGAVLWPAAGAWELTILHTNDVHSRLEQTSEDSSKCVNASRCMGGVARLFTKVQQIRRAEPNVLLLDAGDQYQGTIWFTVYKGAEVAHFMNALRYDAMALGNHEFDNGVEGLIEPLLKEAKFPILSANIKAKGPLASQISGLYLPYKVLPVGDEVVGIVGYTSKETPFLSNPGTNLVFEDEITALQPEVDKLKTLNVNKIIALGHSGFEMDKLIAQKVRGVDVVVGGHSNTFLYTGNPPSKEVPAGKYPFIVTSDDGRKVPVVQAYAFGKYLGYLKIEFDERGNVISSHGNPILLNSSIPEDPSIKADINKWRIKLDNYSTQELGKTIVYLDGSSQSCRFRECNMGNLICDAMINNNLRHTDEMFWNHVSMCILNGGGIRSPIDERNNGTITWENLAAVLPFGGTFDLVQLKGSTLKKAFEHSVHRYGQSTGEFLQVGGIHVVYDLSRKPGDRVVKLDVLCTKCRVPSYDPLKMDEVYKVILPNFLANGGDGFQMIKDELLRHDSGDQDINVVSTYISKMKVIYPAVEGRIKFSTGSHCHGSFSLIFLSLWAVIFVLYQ

The assay addresses 5'-nucleotidase (Homo sapiens, UniProt P21589). Description: In Vitro Inhibitory Activity of Compound to Recombinant Human CD73 Enzyme. On the procedure: Human-CD73 (Novoprotein; C446) was diluted with Tris-MgCl2 buffer to form a stock solution (3×), which was placed in a 96-well plate according to 20 μL/well to obtain a final concentration of 0.1 μg/mL. The compound was diluted with Tris-MgCl2 buffer to form a stock solution (3×) of an appropriate concentration gradient, the compound solution was added to the above 96-well plate according to 20 μL/well and uniformly mixed with the Human-CD73 solution, and the mixture was incubated at the room temperature for 30 min. Meanwhile, a positive reference group (without the compound) and a negative reference group (without CD73) were set. AMP (Sigma; A1752-5G) was diluted with Tris-MgCl2 buffer to form a stock solution (3×), which was added to the above 96-well plate according to 20 μL/well to obtain a final concentration of 100 μM, and the mixture was uniformly mixed and incubated at 37° C. for 60 min; ATP (Sigma; A7699-1G) was diluted with Tris-MgCl2 buffer to form a stock solution (7×), which was added to the above 96-well plate according to 10 μL/well to obtain a final concentration of 100 μM, and the mixture was uniformly mixed, incubated for 5 min, and tested by using an ATP-GLO kit (Promega; G7573).
The IC50 is the concentration that gives 50% inhibition. Consider `O=c1[nH]cc(-c2cc([C@@H]3C[C@H]3C(F)(F)F)c(Cl)nn2)c(=O)[nH]1` (relative stereo) [US20230399314, Compound 2], for which the IC50 was 23.2 nM.
The result for `O=c1[nH]cc(-c2cc([C@H]3C[C@@H]3C(F)(F)F)c(Cl)nn2)c(=O)[nH]1` [US20230399314, Compound 3] reads 11.6 nM; that for `O=c1[nH]cc(-c2cc([C@H]3C[C@@H]3CF)c(Cl)nn2)c(=O)[nH]1` [US20230399314, Compound 9], 4.59 nM.
